The test system of this experiment is collagen induced platelet aggregation. The experiment in a line: In Vitro Inhibition of Platelet Aggregation (collagen induced, rabbit platelet-rich plasma). Conditions: Oryctolagus cuniculus, 10 min; for inhibition at 60 µM: 6 × 10^^-5 mol./l.; for inhibition at 6 µM: 6 × 10^^-6 mol./l.; for inhibition at 600 µM: 6 × 10^^-4 mol./l. It is filed as cell-based. The method, then: The ability of the compounds of the present invention to inhibit platelet aggregation in vitro is measured according to the method of Born, et al., J. Physiol., 168, 178 (1963) and comprises the following procedure: Anesthetized male rabbits are bled from a carotid artery into plastic centrifuge tubes containing 0.1 volume 3% sodium citrate. Platelet-rich plasma is separated by centrifugation at 100 G for 10 minutes at 20° C. […] After 10 minutes of incubation with the platelet-rich plasma at room temperature, collagen, a protein known to cause platelet aggregation, is added (0.27 ml. collagen/4 ml. plasma) and changes in the optical density are followed with a Spectronic 20 colorimeter attached to a Houston Instrument TY Recorder. Platelet aggregation is indicated by a decrease in optical density. The relative potency of the compounds of the present invention are thus rated on their ability to inhibit (percent) collagen induced platelet aggregation.

Consider 19 compounds from US3950525A, “Relaxation of smooth muscle in a mammal” (Pfizer Inc., priority 1975, dated 1976).

SMILES strings stand for the structures. Counter-ions that a name gives are not always drawn.

The inhibition is the share of the control response that was lost under treatment. A high value points to strong suppression. The compound `CCN(CCO)c1cc(-c2ccc(Cl)cc2)ncn1` [Ar=4-ClC6H4; R1=C2H5; R2=HO(CH2)2; R3=H] showed an inhibition at 60 µM of 57% and an inhibition at 6 µM of 18%.

On to `c1ccc(-c2cc(N3CCCCC3)ncn2)cc1` [Ar=C6H5; R1,R2=--(CH2)5--; R3=H, 4-(1-Piperidyl)-6-phenylpyrimidine hydrochloride], for which the inhibition at 600 µM amounted to 94%, the inhibition at 60 µM worked out at 61% and the inhibition at 6 µM is 60%.

Compound `CCN(CC(F)(F)F)c1cc(-c2cccs2)ncn1` [Ar=2-thienyl; R1=CF3CH2; R2=C2H5; R3=H] showed an inhibition at 600 µM of 75%, an inhibition at 60 µM of 65% and an inhibition at 6 µM of 58%.

For `CN1CCN(c2cc(-c3ccc(Cl)cc3)ncn2)CC1` [4-(4-Methyl-1-piperazinyl)-6-(p-chlorophenyl)pyrimidine hydrochloride], the inhibition at 600 µM amounted to 99%, the inhibition at 60 µM was 65% and the inhibition at 6 µM came out at 2%.

In turn, `CCN(CC)c1ncnc(-c2ccccc2)c1C` [Ar=C6H5; R1=C2H5; R2=C2H5; R3=CH3, 4-diethylamino-5-methyl-6-phenylpyrimidine] showed an inhibition at 6 µM of 80%.

On to `CCNc1cc(-c2cccs2)ncn1` [Ar=2-thienyl; R1=C2H5; R2=H; R3=H], for which the inhibition at 600 µM was 99%, the inhibition at 60 µM came to 75% and 6 µM produced 35% inhibition.

Compound `O=[N+]([O-])c1cccc(-c2cc(N3CCCC3)ncn2)c1` [Ar=3-NO2C6H4; R1,R2=--(CH2)4--; R3=H] displayed an inhibition at 600 µM of 94% and an inhibition at 60 µM of 25%.

The compound `CCCN(CCC)c1ncnc(-c2ccccc2)c1CC` [Ar=C6H5; R1=n-C3H7; R2=n-C3H7; R3=C2H5] displayed an inhibition at 6 µM of 5%.

Regarding `CCCc1c(-c2ccccc2)ncnc1N(CC)CC` [Ar=C6H5; R1=C2H5; R2=C2H5; R3=n-C3H7], the inhibition at 6 µM stood at 55%.

For the compound `CCCN(CCC)c1cc(-c2cccs2)ncn1` [Ar=2-thienyl; R1=n-C3H7; R2=n-C3H7; R3=H], the inhibition at 600 µM is 60%, 60 µM produced 60% inhibition and the inhibition at 6 µM was 66%.

`C=CCN(CC=C)c1cc(-c2ccc(OC)cc2)ncn1` returned an inhibition at 600 µM of 90% and an inhibition at 6 µM of 55%.

On to `CNc1cc(-c2ccc(OC)cc2)ncn1` [Ar=4-CH3OC6H4; R1=H; R2=CH3; R3=H], for which the inhibition at 600 µM came to 76% and the inhibition at 60 µM is 13%.

Regarding `CN1CCN(c2cc(-c3ccccc3)ncn2)CC1` [4-(4-Methyl-1-piperazinyl)-6-phenylpyrimidine dihydrochloride], the inhibition at 600 µM came to 99%, the inhibition at 60 µM is 99% and testing at 6 µM gave an inhibition of 59%.

The compound `CCN(CC)c1cc(-c2cccc(NC(=O)NC)c2)ncn1` had an inhibition at 600 µM of 23%.

For the compound `CCCc1c(-c2ccccc2)ncnc1N(C)C` [Ar=C6H5; R1=CH3; R2=CH3; R3=n-C3H7], the inhibition at 6 µM was 40%.

On to `COc1ccc(-c2cc(N3CCN(C)CC3)ncn2)cc1`, for which 600 µM produced 85% inhibition, the inhibition at 60 µM was found to be 55% and the inhibition at 6 µM was found to be 14%.

Take `CCCN(CCC)c1cc(-c2ccc(OC)cc2)ncn1`: 600 µM produced 91% inhibition, the inhibition at 60 µM was 77% and the inhibition at 6 µM is 64%.

As to `c1ccc(-c2cc(N3CCCCCC3)ncn2)cc1` [Ar=C6H5; R1,R2=--(CH2)6--; R3=H, 4-(1-Hexahydroazepinyl)-6-phenylpyrimidine hydrochloride], 600 µM produced 99% inhibition, the inhibition at 60 µM is 83% and the inhibition at 6 µM worked out at 29%.

In the case of `CCNc1cc(-c2ccccc2)ncn1` [Ar=C6H5; R1=C2H5; R2=H; R3=H, 4-ethylamino-6-phenylpyrimidine], 600 µM produced 99% inhibition, 60 µM produced 91% inhibition and 6 µM produced 99% inhibition.
